Experimental data published in US8551537B2, “Rhus verniciflua stokes extract having increased content of active flavonoid compound and method for preparing same” (AZI Company Ltd., priority 2010, dated 2013).

Experiment: Anti-oxidative activity, electron-donating ability by DPPH method
Format: biochemical
Procedure: A measurement of anti-oxidative activity was performed by using a method of measuring an electron-donating ability with DPPH method. DPPH is an abbreviation for 1,1-diphenyl-2-picrylhydrazyl, and is widely used a marker for measuring anti-oxidative activity due to its radical. The testing processes were as follows: (1) 2 ml of 0.1 mM DPPH (Sigma, D-9132) dissolved in ethanol was treated to 2 ml of sample dissolved in ethanol; (2) it was mixed for 10 minutes, and then maintained at a dark place for 30 minutes; (3) an absorbance was measured at 520 nm; and (4) the degree of anti-oxidative ability (electron-donating ability, EDA) was calculated. Vitamin E (Fluka, 95420) was used as a positive control group and Formula was as follow.
In the above formula, Cabs denotes an absorbance of a negative control group (in the case of treating only ethanol instead of sample) and Sabs denotes an absorbance of sample.

[1] = Table 1, comparison experiment between fustin and fisetin
[2] = Table 4, DPPH method, absorbance at 520 nm

Anti-oxidative Activity (IC50, ug/ml) [1] [µg/mL] | Anti-oxidative Activity (IC50, ug/ml) [2] [µg/mL] | Compound | antioxidative activity of fisetin as compared with that of fustin (ratio versus fustin)
8 | 7.8 | O=c1c(O)c(-c2ccc(O)c(O)c2)oc2cc(O)ccc12 [Fisetin, 2-(3,4-dihydroxyphenyl)-3,7-dihydroxy-4H-chromen-4-one-hydrate] | at least 5 times
33 | 32 | O=C1c2ccc(O)cc2O[C@H](c2ccc(O)c(O)c2)[C@H]1O [Fustin, 2,3-Dihydrofisetin] | –
